Results as given in PubChem BioAssay (NCI).
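Interpolation was linear, between the two tested concentrations surrounding the appropriate level; five concentrations were tested over 48 hours in 96-well plates. At the GI50, growth is halved. TGI marks complete inhibition of growth.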

Key:
Test in all cases: DTP human tumour cell line panel, 48 h
[1] = system: SNB-19 CNS
[2] = system: KM12 colon
[3] = system: OVCAR-4 ovarian
[4] = system: BT-549 breast
[5] = system: UACC-257 melanoma
[6] = system: COLO 205 colon
[7] = system: A549 NSCLC
[8] = system: ACHN renal
[9] = system: LOX IMVI melanoma
[10] = system: SK-MEL-5 melanoma
[11] = system: NCI-H460 lung
[12] = system: SK-MEL-28 melanoma
[13] = system: DU-145 prostate
[14] = system: SW-620 colon
[15] = system: MOLT-4 leukemia
[16] = system: UO-31 renal
[17] = system: SF-295 CNS
[18] = system: NCI-H226 lung
[19] = system: SF-539 CNS
[20] = system: TK-10 renal
[21] = system: HOP-62 NSCLC
[22] = system: HCC-2998 colon
[23] = system: SK-MEL-2 melanoma
[24] = system: U251 CNS
[25] = system: NCI-H23 lung
[26] = system: M14 melanoma
[27] = system: CAKI-1 renal
[28] = system: RPMI-8226 leukemia
[29] = system: SN12C renal
[30] = system: HL-60(TB) leukemia
[31] = system: SR leukemia
[32] = system: OVCAR-3 ovarian
[33] = system: HT29 colon
[34] = system: A498 renal
[35] = system: 786-0 renal
[36] = system: HS 578T breast
[37] = system: MDA-MB-435
[38] = system: SNB-75 CNS
[39] = system: MDA-MB-231 breast
[40] = system: HCT-116 colon
[41] = system: HCT-15 colon
[42] = system: PC-3 prostate
[43] = system: MCF7 breast
[44] = system: IGROV1 ovarian
[45] = system: NCI-H522 lung
[46] = system: SF-268 CNS
[47] = system: T-47D breast
[48] = system: SK-OV-3 ovarian
[49] = system: UACC-62 melanoma
[50] = system: NCI/ADR-RES ovarian
[51] = system: HOP-92 NSCLC
[52] = system: CCRF-CEM leukemia
[53] = system: OVCAR-8 ovarian
[54] = system: RXF 393 renal
[55] = system: OVCAR-5 ovarian
[56] = system: EKVX NSCLC
[57] = system: K-562 leukemia

SMILES: COc1ccc2nc3cc(Cl)ccc3c(NCCCCCN3CCCCC3)c2c1
- GI50 [1]: 1.14 µM
- TGI [1]: 5.54 µM
- GI50 [2]: 0.0576 µM
- TGI [2]: 2.7 µM
- GI50 [3]: 0.086 µM
- TGI [3]: 3.01 µM
- GI50 [4]: 1.72 µM
- TGI [4]: 3.28 µM
- GI50 [5]: 1.94 µM
- TGI [5]: 3.77 µM
- GI50 [6]: 0.0668 µM
- TGI [6]: 2.32 µM
- GI50 [7]: 0.068 µM
- TGI [7]: 2.73 µM
- GI50 [8]: 0.0447 µM
- TGI [8]: 2.84 µM
- GI50 [9]: 0.0355 µM
- TGI [9]: 1.44 µM
- GI50 [10]: 1.6 µM
- TGI [10]: 2.96 µM
- GI50 [11]: 0.0361 µM
- TGI [11]: 1.45 µM
- GI50 [12]: 1.86 µM
- TGI [12]: 3.67 µM
- GI50 [13]: 0.0558 µM
- TGI [13]: 2.46 µM
- GI50 [14]: 0.0369 µM
- TGI [14]: 2.16 µM
- GI50 [15]: 0.0416 µM
- TGI [15]: 3.12 µM
- GI50 [16]: 1.43 µM
- TGI [16]: 3.7 µM
- GI50 [17]: 0.0502 µM
- TGI [17]: 1.91 µM
- GI50 [18]: 1.1 µM
- TGI [18]: 3.33 µM
- GI50 [19]: 0.0559 µM
- TGI [19]: 2.29 µM
- GI50 [20]: 1.57 µM
- TGI [20]: 3.66 µM
- GI50 [21]: 0.0654 µM
- TGI [21]: 2.63 µM
- GI50 [22]: 0.0673 µM
- TGI [22]: 2.05 µM
- GI50 [23]: 2.22 µM
- TGI [23]: 4.04 µM
- GI50 [24]: 1.31 µM
- TGI [24]: 3.1 µM
- GI50 [25]: 1.09 µM
- TGI [25]: 2.85 µM
- GI50 [26]: 1.65 µM
- TGI [26]: 3.15 µM
- GI50 [27]: 1.33 µM
- TGI [27]: 4.03 µM
- GI50 [28]: 1.95 µM
- TGI [28]: 6.32 µM
- GI50 [29]: 0.0763 µM
- TGI [29]: 4.7 µM
- GI50 [30]: 1.55 µM
- TGI [30]: 3.54 µM
- GI50 [31]: 0.0314 µM
- TGI [31]: 2.13 µM
- GI50 [32]: 0.123 µM
- TGI [32]: 2.24 µM
- GI50 [33]: 0.0338 µM
- TGI [33]: 1.59 µM
- GI50 [34]: 0.0114 µM
- TGI [34]: 1.88 µM
- GI50 [35]: 0.056 µM
- TGI [35]: 1.95 µM
- GI50 [36]: 1.82 µM
- TGI [36]: 4.5 µM
- GI50 [37]: 1.37 µM
- TGI [37]: 2.73 µM
- GI50 [38]: 1.27 µM
- TGI [38]: 2.56 µM
- GI50 [39]: 1.01 µM
- TGI [39]: 3.1 µM
- GI50 [40]: 0.0435 µM
- TGI [40]: 1.91 µM
- GI50 [41]: 0.0412 µM
- TGI [41]: 1.85 µM
- GI50 [42]: 1.07 µM
- TGI [42]: 4.51 µM
- GI50 [43]: 0.0408 µM
- TGI [43]: 2.13 µM
- GI50 [44]: 0.0888 µM
- TGI [44]: 4.1 µM
- GI50 [45]: 1.44 µM
- TGI [45]: 3.27 µM
- GI50 [46]: 1.03 µM
- TGI [46]: 2.88 µM
- GI50 [47]: 1.94 µM
- TGI [47]: 4.58 µM
- GI50 [48]: 1.26 µM
- TGI [48]: 3.1 µM
- GI50 [49]: 2.07 µM
- TGI [49]: 3.93 µM
- GI50 [50]: 0.0825 µM
- TGI [50]: 4.24 µM
- GI50 [51]: 1.62 µM
- TGI [51]: 4.1 µM
- GI50 [52]: 0.073 µM
- TGI [52]: 6.38 µM

SMILES: CN(C)CCNc1ccc(NCCN(C)C)c2c1C(=O)c1ncsc1C2=O
- TGI [1]: 51 µM
- TGI [2]: 25.2 µM
- TGI [53]: 27.8 µM
- TGI [3]: 25.1 µM
- TGI [4]: 35.1 µM
- TGI [5]: 34.7 µM
- TGI [6]: 31.1 µM
- TGI [7]: 31.3 µM
- TGI [8]: 22.7 µM
- TGI [9]: 29.5 µM
- TGI [10]: 31.6 µM
- TGI [12]: 33.7 µM
- TGI [54]: 41 µM
- TGI [13]: 25.9 µM
- TGI [14]: 29.7 µM
- TGI [15]: 5.57 µM
- TGI [16]: 32.2 µM
- TGI [17]: 26.6 µM
- TGI [18]: 17.7 µM
- TGI [19]: 28.1 µM
- TGI [20]: 58.2 µM
- TGI [55]: 55.3 µM
- TGI [21]: 43.6 µM
- TGI [22]: 31.3 µM
- TGI [23]: 42.7 µM
- TGI [24]: 29.7 µM
- TGI [25]: 30 µM
- TGI [26]: 36.6 µM
- TGI [27]: 57.5 µM
- TGI [28]: 29.4 µM
- TGI [29]: 25.7 µM
- TGI [31]: 4.39 µM
- TGI [32]: 37.2 µM
- TGI [33]: 19.7 µM
- TGI [34]: 28.1 µM
- TGI [35]: 24 µM
- TGI [36]: 50.3 µM
- TGI [56]: 26.4 µM
- TGI [37]: 27.8 µM
- TGI [38]: 33 µM
- TGI [39]: 32.2 µM
- TGI [40]: 22.7 µM
- TGI [41]: 27.6 µM
- TGI [42]: 38.1 µM
- TGI [57]: 34.3 µM
- TGI [43]: 21.3 µM
- TGI [44]: 28.1 µM
- TGI [45]: 31.7 µM
- TGI [46]: 39.3 µM
- TGI [47]: > 100 µM
- TGI [48]: 38.8 µM
- TGI [49]: 24.6 µM
- TGI [50]: > 100 µM
- TGI [51]: 29.9 µM
- TGI [52]: 10.9 µM
